Test results published in patent US7867747B2, “Fibrinolytic metalloprotease and composition comprising the same” (priority 2006, dated 2011).
Structures can show the parent of a compound that is named as a salt. Where two headings read alike, the source gives them in different places.

Columns and labels:
Type in all cases: biochemical
[1] = tested on: zinc-dependent metalloprotease (purified recombinant enzyme)
azocasein [2] = assay: Protease activity assay, release of acid-soluble material from azocasein; conditions: 50 mM Tris-HCl pH 7.0, 50° C., 1 h, by purification step
Procedure: Protease activity was determined by measuring the release of acid-soluble material from azocasein (Sigma, USA) (Windle, H. J. P. et al., Infect. Immun. Vol. 65, pp 3132-3137, 1997).
(§1) Specifically, all assays were conducted in a 50 mM Tris-HCl (pH 7.0) buffer. Enzyme samples (100 μl) obtained in Example 2 were added to 100 μl of 1% (w/v) azocasein and the reaction mixture was incubated at 50° C. for 1 h and terminated by the addition of 400 μl of 10% (w/v) trichloroacetic acid. The precipitated protein was removed by centrifugation (12,000×g, 5 min), and the resulting supernatant was transferred to a clean tube containing 700 μl of 525 mM NaOH. Absorbance was measured at 442 nm.
One unit of protease activity was defined as an amount required for producing enough acid-soluble material from azocasein to yield absorbance of 0.1 at 442 nm, following 1 h incubation at 50° C.

[3] = tested on: fibrin (human fibrinogen clotted with human thrombin); assay: Fibrinolytic assay, hydrolysis of fibrin clots analysed by SDS-PAGE; conditions: 37° C.
Procedure: Fibrinolytic activity was determined using the method described by Datta et al. (Datta, et al., Arch. Biochem. Biophys. Vol. 317, pp 365-373, 1995) with minor modifications.
Specifically, 10 μl of 1% human fibrinogen (Sigma, USA) solution (prepared in a 20 mM Tris/HCl (pH 7.4) buffer) was added to human thrombin (0.05 NIH unit, Sigma, USA), and then allowed to stand for 1 h at room temperature. […] The hydrolysis of fibrin by the enzyme was analyzed by SDS-PAGE (FIG. 4). 5 μl each of reaction solutions was obtained at various time intervals and analyzed using an 11% SDS-PAGE gel.

azocasein [4] = assay: Effects of temperature and pH on enzyme activity (azocasein assay)
Procedure: as §1
The optimal temperature for protease activity was examined in the buffer used in the standard assay at various temperatures. The values on the ordinate are shown as percentages of the enzyme activity (100%) observed at 50° C.
The optimal pH for the protease activity was determined in various buffers at 50° C. The buffers used were sodium acetate buffers (open rectangles, pH 5.0-6.0), Tris-HCl buffers (open triangles, pH 6.0-8.0) and glycine-NaOH buffers (open circles, pH 8.0-9.0).
The values on the ordinate are shown as percentages of the enzyme activity (100%) observed at pH 7.0. […] The optimal pH for the activity of protease was 7.0 (FIG. 3B).

[5] = 1 mM, pre-incubation 25° C. 30 min, 50 mM Tris-HCl pH 7.0, no addition = 100

Molecule: [Cl-].[Cl-].[Mg+2] [MgCl2]
- effect on enzyme activity (in words) ([1]; 1 mM, as shown in Table 2): inhibited
- Relative activity [1, 5]: 20%

Molecule: [Ca+2].[Cl-].[Cl-] [CaCl2]
- effect on enzyme activity (in words) ([1]; 1 mM, as shown in Table 2): enhanced
- Relative activity [1, 5]: 200%

Molecule: CCCCCCCCCCCCOS(=O)(=O)[O-].[Na+] [SDS, sodium dodecyl sulfate]
- Relative activity ([1]; 17 mM, pre-incubation 25° C. 30 min, 50 mM Tris-HCl pH 7.0, no addition = 100): 9%
- effect on enzyme activity (in words) ([1]; 0.05% SDS): easily denatured

Molecule: N=C(N)N [Guanidine hydrochloride, guanidine hydrochloride]
- effect on enzyme activity (in words) ([1]; 0.5 M): strongly inhibited
- Relative activity ([1]; 500 mM, pre-incubation 25° C. 30 min, 50 mM Tris-HCl pH 7.0, no addition = 100): 22%

Molecule: O=S(=O)([O-])[O-].[Fe+2] [FeSO4]
- Relative activity [1, 5]: 100%

Molecule: O=C(O)CN(CCOCCOCCN(CC(=O)O)CC(=O)O)CC(=O)O [EGTA, ethylene glycol-bis(2-aminoethylether)-N,N,N′,N′-tetraacetic acid]
- effect on enzyme activity (in words) ([1]; 1 mM, as shown in Table 2): inhibited
- Relative activity [1, 5]: 21%

Molecule: c1cnc2c(c1)ccc1cccnc12 [1,10-phenanthroline]
- effect on enzyme activity (in words) ([1]; 1 mM, as shown in Table 2): inhibited
- Relative activity [1, 5]: 55%

Molecule: O=S(=O)([O-])[O-].[Ni+2] [NiSO4]
- effect on enzyme activity (in words) ([1]; 1 mM, as shown in Table 2): enhanced
- Relative activity [1, 5]: 140%

Molecule: [Cl-].[Cl-].[Zn+2] [ZnCl2]
- effect on enzyme activity (in words) ([1]; 1 mM, as shown in Table 2): inhibited
- Relative activity [1, 5]: 80%

Molecule: O=C(O)CN(CCN(CC(=O)O)CC(=O)O)CC(=O)O [EDTA, ethylenediaminetetraacetic acid]
- effect on enzyme activity (in words) [1]: inhibited
- Relative activity ([1]; pH 7): 27%

Molecule: O=S(=O)(F)Cc1ccccc1 [PMSF, phenylmethylsulfonyl fluoride]
- effect on enzyme activity (in words) ([1]; 1 mM, as shown in Table 2): no influence
- Relative activity [1, 5]: 104%

Molecule: [Cl-].[Cl-].[Co+2] [CoCl2]
- effect on enzyme activity (in words) [1]: enhanced
- Relative activity ([1]; 1 mM): 280%

Molecule: O=S(=O)([O-])[O-].[Cu+2] [CuSO4]
- Relative activity [1, 5]: 100%

B1: recombinant protease: Zinc-dependent fibrinolytic metalloprotease, 359 amino acids (SEQ ID NO:2), about 39 kDa, from deep-sea sediment metagenome, expressed in E. coli, purified by chitin affinity … (protein)
chain: MEPEPIKTCTVLENPGYQPIHAPTDVSPQPVLAAMEAVPVPTPPPTVDAVMLFRKKWRDGKILRVHFMDGDPDVHRKVEEVAHTWSRHANVRFKFVDDPAADIRISFTQPGSWSYLGTDALRIARSQSTMNFGWLTPRSPDSEYNRVVIHEFGHALGLVHEHQNPDNGIPWNKPAVYEYYSGPPNNWSKEQVDTNLFQQYSEDQVRFTGFDRESIMLYPIPNEFTVGDFEVGWNRDLSADDKEFIGRMYPKPANELIVDDPPRASEISRYGEIDTYTFLVTQKGSYRIETDGRTDLVMLLYGPEDDTKLIAADDDSGRRLNPRITEELDWGKYTVRLQHFSQRQTGKYAVGVYRDDAAE
modifications: Protein sequence of coding metalloprotease ES6349
- Specific activity (azocasein [2]): 76,000 U/mg
- Specific activity (azocasein [2]; listed as Affinity chromatography): 3,400 U/mg
- hydrolysis of the β-chain of fibrin ([3]; after 30 min): partially hydrolyzed
- hydrolysis of the α-chain of fibrin ([3]; after 1 h): completely hydrolyzed
- hydrolysis of the γ-γ-chain of fibrin ([3]; after 1 h): completely hydrolyzed
- hydrolysis of the β-chain of fibrin ([3]; after 2 h): not completely hydrolyzed
- hydrolysis of the β-chain of fibrin ([3]; after 24 h (data not shown)): not completely hydrolyzed
- Enzyme activity compared with the enzyme activity (100%) at 50° C. (azocasein [4]; at 40° C.): 26%
- Enzyme activity compared with the enzyme activity (100%) at 50° C. (azocasein [4]; at 60° C.): 18%
- optimal temperature for the activity of the protease (azocasein [4]; standard assay buffer, 1 h): 50 °C
- optimal pH for the activity of protease (azocasein [4]; various buffers at 50° C.): 7.0
